From patent US9406887B2, “Solution, organic semiconductor material, organic semiconductor film, electronic device and electronic equipment” (RICOH COMPANY, LTD., priority 2013, dated 2016)

Legend:
[1] = Solubility of the compound in an organic solvent (saturated solution at 25° C. after reflux); format: physicochemical; conditions: cooled to 25° C. after reflux; for solubility in CHCl3: chloroform
Protocol: After the compound was added to […] of an organic solvent such as toluene, THF and chloroform until insoluble residue remained, the mixture was stirred for 10 min while the organic solvent was refluxed with heat. Next, after the mixture was cooled to have a temperature of 25° C., it was stirred for 1 hr. Further, after quietly put for 16 hrs, the top clear layer of the mixture was filtered through a PTFE filter having a hole diameter of 0.2 μm to prepare a saturated solution. Next, the solution was dried under reduced pressure and the solubility of the compound in an organic solvent was measured. The evaluation standard of the solubility of the compound in an organic solvent is as follows.

[2] = Weight variation (TG) on heating, thermal analyzer EXSTRA6200; format: physicochemical; conditions: heated to 250° C. at 20° C./min, nitrogen atmosphere
Protocol: After 50 mg (0.10 mmol) of the compound having the formula (1-1) were placed in an aluminum pan, they were heated to have a temperature of 250° C. at 20° C./min and weight variation (TG) thereof was measured using a thermal analyzer EXSTRA6200 from Seiko Instruments, Inc. in a nitrogen atmosphere. Thus, 29 mg (yield rate quant.) of a dark purple solid compound having the formula (2-1) was obtained.

Compound | solubility in THF [1] | solubility in CHCl3 [1] | solubility in Toluene [1] | weight reduction (TG) [2]
CC(C)(C)OC(=O)N1C(=O)C2=C(c3cccs3)N(C(=O)OC(C)(C)C)C(=O)C2=C1c1cccs1 [formula (1-1)] | Excellent (not less than 0.5% by weight) | Excellent (not less than 0.5% by weight) | Excellent (not less than 0.5% by weight) | 34.6%
CCCCCCc1ccc(-c2ccc(C3=C4C(=O)N(C(=O)OC(C)(C)C)C(c5ccc(-c6ccc(CCCCCC)s6)s5)=C4C(=O)N3C(=O)OC(C)(C)C)s2)s1 [formula (1-12)] | Good (not less than 0.1% and less than 0.5% by weight) | Excellent (not less than 0.5% by weight) | Excellent (not less than 0.5% by weight) | 23.8%
CC(C)(C)OC(=O)N1C(=O)C2=C(c3ccc(Br)s3)N(C(=O)OC(C)(C)C)C(=O)C2=C1c1ccc(Br)s1 [formula (1-4)] | Excellent (not less than 0.5% by weight) | Excellent (not less than 0.5% by weight) | Good (not less than 0.1% and less than 0.5% by weight) | 31.6%
CCCCCCc1ccc(-c2ccc(-c3ccc(C4=C5C(=O)N(C(=O)OC(C)(C)C)C(c6ccc(-c7ccc(-c8ccc(CCCCCC)s8)s7)s6)=C5C(=O)N4C(=O)OC(C)(C)C)s3)s2)s1 [formula (1-16)] | Excellent (not less than 0.5% by weight) | Excellent (not less than 0.5% by weight) | Excellent (not less than 0.5% by weight) | 19.8%
O=C1NC(c2cccs2)=C2C(=O)NC(c3cccs3)=C12 [formula (2-1)] | Poor (less than 0.005% by weight) | Poor (less than 0.005% by weight) | Poor (less than 0.005% by weight) | –
CCCCCCCCCCCCOc1cc(-c2ccc(-c3ccc(-c4ccc(C5=C6C(=O)N(C(=O)OC(C)(C)C)C(c7ccc(-c8ccc(-c9ccc(-c%10cc(OCCCCCCCCCCCC)c(OCCCCCCCCCCCC)c(OCCCCCCCCCCCC)c%10)s9)s8)s7)=C6C(=O)N5C(=O)OC(C)(C)C)s4)s3)s2)cc(OCCCCCCCCCCCC)c1OCCCCCCCCCCCC [formula (1-27)] | Good (not less than 0.1% and less than 0.5% by weight) | Excellent (not less than 0.5% by weight) | Good (not less than 0.1% and less than 0.5% by weight) | 9.4%
CCCCCCOc1ccc(-c2ccc(C3=C4C(=O)N(C(=O)OC(C)(C)C)C(c5ccc(-c6ccc(OCCCCCC)cc6)s5)=C4C(=O)N3C(=O)OC(C)(C)C)s2)cc1 [formula (1-18)] | Excellent (not less than 0.5% by weight) | Excellent (not less than 0.5% by weight) | Excellent (not less than 0.5% by weight) | 23.1%
CCCCCCc1csc(-c2ccc(C3=C4C(=O)N(C(=O)OC(C)(C)C)C(c5ccc(-c6cc(CCCCCC)cs6)s5)=C4C(=O)N3C(=O)OC(C)(C)C)s2)c1 [formula (1-17)] | Excellent (not less than 0.5% by weight) | Excellent (not less than 0.5% by weight) | Excellent (not less than 0.5% by weight) | 23.1%
CCCCCCCCCCCCOc1cc(-c2ccc(-c3ccc(C4=C5C(=O)N(C(=O)OC(C)(C)C)C(c6ccc(-c7ccc(-c8cc(OCCCCCCCCCCCC)c(OCCCCCCCCCCCC)c(OCCCCCCCCCCCC)c8)s7)s6)=C5C(=O)N4C(=O)OC(C)(C)C)s3)s2)cc(OCCCCCCCCCCCC)c1OCCCCCCCCCCCC [formula (1-25)] | Excellent (not less than 0.5% by weight) | Excellent (not less than 0.5% by weight) | Excellent (not less than 0.5% by weight) | 10.3%
